# Assay results taken from article PMC6934184, “Selective DNA-PKcs inhibition extends the therapeutic index of localized radiotherapy and chemotherapy” (The Journal of Clinical Investigation, 2019).
# Target: T1, LIMK2 (Homo sapiens, UniProt P53671)
# T1 construct: purchased Thermo Fisher Scientific (Life Technologies) SelectScreen
# Assay: SelectScreen LanthaScreen
# Format: binding
# Conditions: read-out: % displacement
# Procedure, shortened: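 Percent values come from Thermo SelectScreen profiling of NU5455, combining activity and binding assays. CSF1R was run in Z'LYTE format at Km app ATP, and CAMK1 in Adapta format with ATP listed at 10.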
# T1 sequence (P53671 whole entry): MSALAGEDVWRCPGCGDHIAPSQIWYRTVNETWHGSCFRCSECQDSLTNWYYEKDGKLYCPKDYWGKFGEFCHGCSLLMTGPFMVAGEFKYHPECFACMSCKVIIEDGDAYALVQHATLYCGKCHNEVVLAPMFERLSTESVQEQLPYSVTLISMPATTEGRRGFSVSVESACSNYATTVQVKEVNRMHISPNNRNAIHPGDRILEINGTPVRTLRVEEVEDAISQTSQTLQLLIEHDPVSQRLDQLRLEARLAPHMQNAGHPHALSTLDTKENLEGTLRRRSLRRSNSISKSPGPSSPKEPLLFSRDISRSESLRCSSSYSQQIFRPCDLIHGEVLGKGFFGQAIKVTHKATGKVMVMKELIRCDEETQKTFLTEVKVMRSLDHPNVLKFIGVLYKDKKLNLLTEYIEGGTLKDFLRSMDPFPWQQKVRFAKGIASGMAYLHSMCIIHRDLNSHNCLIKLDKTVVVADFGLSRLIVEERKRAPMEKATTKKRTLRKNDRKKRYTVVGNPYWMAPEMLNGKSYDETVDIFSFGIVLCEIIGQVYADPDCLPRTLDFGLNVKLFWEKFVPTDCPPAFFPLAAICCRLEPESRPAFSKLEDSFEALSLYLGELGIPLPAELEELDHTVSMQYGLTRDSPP
smiles,measurement,value
CN(C(=O)CN1CCOCC1)c1ccc2sc3c(-c4cccc5c(=O)cc(N6CC7CCC(C6)O7)oc45)cccc3c2c1 [NU5455],inhibition at 1 µM,1.4%
